# Data taken from patent US9987247B2, “Drugs for treating diseases of cervical and/or lumbar vertebrae” (priority 2013, dated 2018).
# Experiments:
# [1] = tested on: lumbar disc herniation; experiment: Treatment of patients with lumbar disc herniation with oral benzbromarone (case reports); type: in vivo, human
# [2] = tested on: cervical disc herniation / cervical disease; experiment: Treatment of patients with cervical disc herniation / cervical disease with oral benzbromarone (case reports); type: in vivo, human
# From the text: The clinical effect criteria of the drug of the present application for treating cervical spondylosis can also be evaluated 2 weeks after treatment.
# [3] = Patient A, 100 mg first day then 50 mg once a day, after five days
# [4] = Patient A, 100 mg first day then 50 mg once a day, after two days
# [5] = Patient B, 50 mg once a day, after seven days
# [6] = Patient C, 12.5 mg once a day, after continuous administration for six days
# [7] = Patient H, 100 mg once a day plus sodium bicarbonate, after six days
# [8] = Patient L, 100 mg once a day plus sodium bicarbonate, after seven days
smiles,measurement,setting,value
CCc1oc2ccccc2c1C(=O)c1cc(Br)c(O)c(Br)c1 [benzbromarone],painful symptoms,"[1]; Patient A, about 75 kg, once a day, 100 mg first day then 50 mg, after one day",lessened
same,pain,[1]; [3],basically disappeared
same,walking,[1]; [3],could walk properly
same,ability to walk,[1]; [4],able to walk
same,painful symptoms,[1]; [4],alleviated obviously
same,recurrence of symptoms,"[1]; Patient A, within the next six months",haven't occurred
same,painful symptoms,"[1]; Patient B, about 60 kg, 50 mg once a day, waist massage first two days, after two days",alleviated obviously
same,ability to walk and work,[1]; [5],able to walk and work
same,pain during severe coughing,[1]; [5],no perceptible pain
same,waist pain,[1]; [5],basically disappeared
same,recurrence,"[1]; Patient B, within the next three months",no recurrence
same,pain,"[1]; Patient C, 12.5 mg once a day, waist massage first two days, six days later",significantly lessened
same,symptoms of pain,[1]; [6],disappeared
same,walking and ability to work,[1]; [6],walked properly and was able to work
same,Straight leg raising test,"[1]; Patient C, 12.5 mg once a day, after continuous administration for six days, positive before treatment",negative
same,recurrence,"[1]; Patient C, within the next two months",no recurrence
same,pain,"[1]; Patient D, L4/5 protrusion, 50 mg once a day, no other treatment, three days later",significantly lessened
same,"walking, ability to work, pain","[1]; Patient D, 50 mg once a day, after six days",walked properly and was able to work without pain
same,Straight leg raising test,"[1]; Patient D, 50 mg once a day, after six days, positive before treatment",negative
same,recurrence,"[1]; Patient D, within the next three months",no recurrence
same,pain,"[1]; Patient F, about 25 mg once a day, waist massage first three days, three days later",significantly lessened
same,walking,"[1]; Patient F, about 25 mg once a day, after six days",walked properly
same,ability to walk,"[1]; Patient F, about 25 mg once a day, three days later",able to walk
same,recurrence,"[1]; Patient F, within the next two months",no recurrence
same,pain,"[1]; Patient H, about 62 kg, L3/4 protrusion, 100 mg once a day plus sodium bicarbonate tablets 0.5 g three times a day, two days later",significantly reduced
same,pain when coughing,[1]; [7],no pain was felt
same,waist pain,[1]; [7],basically disappeared
same,walking and ability to work,[1]; [7],"could walk normally, and was able to work"
same,Straight leg raising test,"[1]; Patient H, 100 mg once a day plus sodium bicarbonate, after six days, positive before treatment",negative
same,recurrence,"[1]; Patient H, within the next three months",No recurrence
same,pain,[1]; [8],basically disappeared
same,walking and work ability,[1]; [8],"normal walking, work ability recovery"
same,Bragard test,"[1]; Patient L, 100 mg once a day plus sodium bicarbonate, after seven days, positive before treatment",negative
same,relapse,"[1]; Patient L, during the following two months",no relapse
same,"symptoms in pain, upper limbs numbness and dizziness","[2]; Patient E, cervical intervertebral disc herniation, about 50 mg once a day, no other treatment, six days later",relieved
same,pain and dizziness symptoms,"[2]; Patient G, cervical disease, about 25 mg once a day, neck massage first three days, eight days later",disappeared
same,Fenz signs,"[2]; Patient G, about 25 mg once a day, eight days later, positive before treatment",negative
same,dizziness symptoms,"[2]; Patient I, about 55 kg, cervical disc herniation, capsules 50 mg twice a day plus sodium bicarbonate tablets 0.5 g three times a day, after three days",reduced significantly
same,pain and dizziness symptoms,"[2]; Patient I, capsules 50 mg twice a day plus sodium bicarbonate, after eight days",disappeared
same,flexion neck rotation test,"[2]; Patient I, capsules 50 mg twice a day plus sodium bicarbonate, after eight days, positive before treatment",negative
same,recurrence,"[2]; Patient I, within the next one months",no recurrence
